Source: patent US20260137698A1, “CYCLIN-DEPENDENT KINASE 7 INHIBITORS” (JOINT STOCK COMPANY «BIOCAD», priority 2022, published 2026)
Like-named read-outs stand apart in the source and are kept apart here. Each block holds one molecule with its values, some of them ahead of it.

Legend:
[1] = molecular target: CDK7/Cyclin H/MNAT1 (Homo sapiens, UniProt P50613); assay: Inhibition of CDK7/Cyclin H/MNAT1 kinase activity (ADP-Glo); assay type: biochemical
Outline: (§1)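 ADP-Glo luminescence quantified ATP consumption after a 40-60 minute, 25° C. reaction with ATP plus CDKtide, Histone H1 or PDKtide, following a 10-minute compound–kinase preincubation in DTT-supplemented kinase buffer A. Compounds spanned 11 concentrations from 50 μM in 4-fold dilutions; IC50 fitted to a four-parameter model.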

[2] = molecular target: CDK9/Cyclin K (Homo sapiens, UniProt P50750); assay: Inhibition of CDK9/Cyclin K kinase activity (ADP-Glo); assay type: biochemical
Chain of CDK9/Cyclin K (P50750 whole entry): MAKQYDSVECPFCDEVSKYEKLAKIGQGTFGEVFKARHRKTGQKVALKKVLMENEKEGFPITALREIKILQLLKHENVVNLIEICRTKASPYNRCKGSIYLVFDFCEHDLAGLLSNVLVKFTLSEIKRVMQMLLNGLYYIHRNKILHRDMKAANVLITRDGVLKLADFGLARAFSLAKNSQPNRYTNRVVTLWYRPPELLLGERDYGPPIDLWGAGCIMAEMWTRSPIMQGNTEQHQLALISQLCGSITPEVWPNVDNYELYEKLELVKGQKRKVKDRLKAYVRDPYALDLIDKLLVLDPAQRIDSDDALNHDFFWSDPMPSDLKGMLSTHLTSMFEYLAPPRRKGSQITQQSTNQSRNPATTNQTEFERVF
Chain of CDK9/Cyclin K (O75909 whole entry partner): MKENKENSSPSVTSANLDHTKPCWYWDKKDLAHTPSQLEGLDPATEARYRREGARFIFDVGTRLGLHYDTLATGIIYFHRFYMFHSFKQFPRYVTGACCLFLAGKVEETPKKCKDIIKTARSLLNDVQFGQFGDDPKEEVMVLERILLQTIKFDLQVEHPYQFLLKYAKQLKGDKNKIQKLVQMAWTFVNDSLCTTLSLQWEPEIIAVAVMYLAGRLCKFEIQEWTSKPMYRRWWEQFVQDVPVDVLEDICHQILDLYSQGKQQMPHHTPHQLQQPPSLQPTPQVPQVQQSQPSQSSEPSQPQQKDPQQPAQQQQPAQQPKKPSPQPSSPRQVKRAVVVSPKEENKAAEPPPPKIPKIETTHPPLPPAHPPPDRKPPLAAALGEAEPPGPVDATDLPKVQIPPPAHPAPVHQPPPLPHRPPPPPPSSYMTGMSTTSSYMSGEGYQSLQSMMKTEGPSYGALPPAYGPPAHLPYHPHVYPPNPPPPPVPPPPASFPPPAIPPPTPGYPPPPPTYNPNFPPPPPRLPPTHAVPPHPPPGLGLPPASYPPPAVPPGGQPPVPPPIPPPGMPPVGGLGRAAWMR
Outline: as §1

[3] = tested on: MDA-MB-468 (triple negative breast cancer); assay: Antiproliferative assay on MDA-MB-468 cells (AlamarBlue, 96 h); assay type: cell-based; conditions: Homo sapiens, mean value from several measurements
[4] = tested on: NCl-H82 (small cell lung cancer); assay: Antiproliferative assay on NCl-H82 cells (AlamarBlue, 120 h); assay type: cell-based; conditions: mean value from several measurements
Protocol: The antiproliferative activity of CDK7 inhibitors according to the present invention was evaluated in a cell test using continuous cell cultures: MDA-MB-468 (triple negative breast cancer, ATCC® HTB-132™) and NCl-H82 (small cell lung cancer, ATCC® HTB-175™) using a viable AlamarBlue dye (Thermo Fisher Scientific Inc, order no. DAL1100). The cells were grown in DMEM (PanEco, order no. C330π) and RPMI-1640 (PanEco, order no. C330π), respectively. The basal growth medium was enriched with L-glutamine at a concentration of 2 mM (PanEco, order no. Φ032) and 10% fetal bovine serum (Gibco, order no. 16140-071). The night before measurement, MDA-MB-468 adherent cells were detached from plastic with a solution of trypsin-EDTA (PanEco, order no. Π039π), the solution was then inactivated by a DMEM complete medium, centrifuged at 1000 RPM (Eppendorf, 5804 R), a suspension of cells was prepared in a DMEM complete medium, introduced into 96-well culture plates (Corning Inc, order no. 3599) at 8×10^3 cells in 100 μl of medium per well. The next day, test compounds were dissolved in DMSO and diluted with a DMEM complete medium to a final concentration ranging from 50 μM to 10 pM. Diluted compounds in a volume of 50 μl were introduced into the plate wells with cells in triplicates (the final concentration of DMSO was no more than 1%) and incubated at 37° C. in an incubator with 5% CO2 for 96 hours. NCl-H82 suspension cell line was prepared on the day of the analysis. 10×10^3 cells in 100 μl of an RPMI-1640 complete medium were added to each well of a 96-well plate. The procedure for sample dilution is as described above. Cells with test compounds were incubated at 37° C. in an incubator with 5% CO2 for 120 hours. Following incubation, […] of AlamarBlue reagent (Thermo Fisher Scientific Inc., order no. DAL1100) was added to the wells, the contents of the plates were stirred in an orbital shaker (Biosan, Latvia), then further incubated for 5.5-6 hours at 37° C. in an incubator with 5% CO2. The number of viable cells was detected using the Infinite M200Pro microplate spectrophotometer (Tecan Group Ltd, Switzerland) by way of measuring a fluorescent signal at an excitation wavelength (λEx) of 540 nm and an emission wavelength (λEm) of 590 nm.
IC50 value was calculated using the Magellan software (Tecan Group Ltd, Switzerland) by approximating experimental points by four-parameter model with the optimization by Levenberg-Marquardt: […]

[5] = General cytotoxicity on primary differentiated HepaRG cells (72 h); assay type: cell-based; conditions: human, general toxicity, mean value from several measurements
Outline: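 Test compounds spanning 200 μM to 0.2 nM were incubated for 72 hours with primary differentiated HepaRG cells. Cells had been kept one week in supplemented hepatic medium and seeded the night before at 25×10^3 per well, and viability was then measured.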

[6] = Passive membrane permeability through PAMPA artificial membrane, pH 7.4; assay type: in vitro ADME; conditions: pH 7.4, 10 μmol, 20 hours at room temperature, mean of multiple measurements, read-out: PAMPA passive permeability Pe
Protocol: Passive membrane permeability of the compounds described in the present invention was determined using the PAMPA (parallel artificial membrane permeability assay) model at pH 7.4.
We used a 96-well plate (Corning® BioCoat® Pre-coated PAMPA Plate System, order no. 353015), composed of acceptor and donor parts with cell membrane-modeling PVDF filter pre-impregnated with a lecithin-phospholipid bilayer. The substance (at a concentration of 10 μmol) in a 0.01 M phosphate buffer with pH 7.4 was introduced into a donor well of the plate, and pure buffer was introduced into an acceptor well; afterwards, the both parts were combined and incubated for 20 hours at room temperature so that the compound was redistributed between the two wells and the membrane. Verapamil (USP, USA, order no. 1711202) and propranolol (MCE LLC, USA, cat. no. HY-B0573/CS-2680) were used as control compounds with high and medium permeability. Samples were analyzed by reversed-phase HPLC with UV detection (Agilent 1260 chromatograph with UV detector) by determining their peak areas in the donor and acceptor wells.
Permeability (Pe, cm/s) and retention factor (R, %) in the lipid bilayer were calculated using the formula:
[formula] [formula] • Co is donor-well concentration of the substance at the initial moment of time t (μM); • CA (t) is acceptor-well concentration of the substance at time t (μM); • Vd is donor-well volume (0.3 ml); • Va is acceptor-well volume (0.15 ml).
[formula] • A is filter area (0.3 cm^2); • t is incubation time (72000 s);

[7] = molecular target: CDK2/Cyclin A (Homo sapiens, UniProt P24941); assay: Inhibition of CDK2/Cyclin A kinase activity (ADP-Glo); assay type: biochemical
Outline: as §1

[8] = mean value from several measurements, read-out: IC50 CDK7/Cyclin H/MNAT
[9] = mean value from several measurements, read-out: IC50 CDK9/Cyclin K
[10] = mean value from several measurements, read-out: IC50 CDK2/Cyclin A
[11] = mean of multiple measurement series, ATP 10 μM, read-out: CDK7/Cyclin H/MNAT1 IC50
[12] = mean of multiple measurement series, ATP 50 μM, read-out: CDK2/Cyclin A IC50
[13] = mean of multiple measurement series, ATP 50 μM, read-out: CDK9/Cyclin K IC50

Chain of CDK7/Cyclin H/MNAT1 (P50613 whole entry): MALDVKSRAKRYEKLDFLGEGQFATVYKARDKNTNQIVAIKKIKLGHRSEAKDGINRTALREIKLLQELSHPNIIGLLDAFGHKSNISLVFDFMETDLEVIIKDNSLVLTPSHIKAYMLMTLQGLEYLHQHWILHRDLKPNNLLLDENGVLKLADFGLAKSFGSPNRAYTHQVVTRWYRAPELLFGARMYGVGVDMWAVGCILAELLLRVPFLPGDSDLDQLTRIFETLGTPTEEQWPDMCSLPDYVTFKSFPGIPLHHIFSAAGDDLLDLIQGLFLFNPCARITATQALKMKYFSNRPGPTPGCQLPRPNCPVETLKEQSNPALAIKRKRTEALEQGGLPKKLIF
Chain of CDK7/Cyclin H/MNAT1 (P51946 whole entry partner): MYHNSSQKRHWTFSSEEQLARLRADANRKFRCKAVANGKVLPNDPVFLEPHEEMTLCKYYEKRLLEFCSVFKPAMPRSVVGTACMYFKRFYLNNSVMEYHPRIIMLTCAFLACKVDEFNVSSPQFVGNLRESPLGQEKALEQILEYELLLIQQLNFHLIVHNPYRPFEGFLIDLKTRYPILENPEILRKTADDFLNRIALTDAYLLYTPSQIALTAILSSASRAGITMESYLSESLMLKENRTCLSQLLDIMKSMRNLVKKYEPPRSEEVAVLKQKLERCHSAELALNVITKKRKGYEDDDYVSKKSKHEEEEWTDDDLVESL
Chain of CDK7/Cyclin H/MNAT1 (P51948 whole entry partner): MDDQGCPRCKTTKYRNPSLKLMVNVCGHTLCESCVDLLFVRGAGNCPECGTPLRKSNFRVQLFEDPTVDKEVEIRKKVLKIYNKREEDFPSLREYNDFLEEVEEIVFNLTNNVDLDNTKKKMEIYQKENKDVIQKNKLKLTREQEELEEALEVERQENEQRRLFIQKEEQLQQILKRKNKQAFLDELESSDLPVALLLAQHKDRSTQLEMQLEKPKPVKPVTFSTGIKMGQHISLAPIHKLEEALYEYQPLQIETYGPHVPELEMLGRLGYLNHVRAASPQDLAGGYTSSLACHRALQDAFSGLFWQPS

Structure (SMILES): FC(F)(F)c1cnc(N[C@H]2CCCNC2)nc1-c1c[nH]c(-c2ccccn2)c1 [CDK7_1061, N-[(3S)-piperidin-3-yl]-4-[5-(pyridin-2-yl)-1H-pyrrol-3-yl]-5-(trifluoromethyl)py-rimidin-2-amine]
IC50 [1, 8]: 5 to 50 nM
IC50 [2, 9]: 5 to 50 nM
IC50 [3]: 10 to 100 nM
IC50 [4]: 10 to 100 nM
CC50 at 72 h [5]: 500 to 2000 nM
Papp at 20 h, 10 μmol [6]: 1 to 5 ×10⁻⁶ cm/s

Structure (SMILES): CN1CC=Cc2c(-c3nc(N[C@H]4CCCNC4)ncc3C(F)(F)F)c[nH]c2C1=O [CDK7_929]
IC50 [1, 8]: < 5 nM
IC50 [7, 10]: > 200 nM
IC50 [2, 9]: 5 to 50 nM
IC50 [3]: < 10 nM
IC50 [4]: < 10 nM
CC50 at 72 h [5]: 100 to 500 nM
Papp at 20 h, 10 μmol [6]: < 1 ×10⁻⁶ cm/s

Structure (SMILES): Cn1ccc2c(-c3nc(N[C@H]4CCCNC4)ncc3C(F)(F)F)c[nH]c2c1=O [CDK7_845, 6-methyl-3-(2-{[(3S)-piperidin-3-yl]amino}-5-(trifluoromethyl)pyrimidin-4-yl)-1H,6H,7H-pyrrolo[2,3-c]pyridin-7-one]
IC50 [1, 8]: < 5 nM
IC50 [7, 10]: > 200 nM
IC50 [2, 9]: 5 to 50 nM
IC50 [3]: < 10 nM
IC50 [4]: < 10 nM
CC50 at 72 h [5]: 100 to 500 nM
Papp at 20 h, 10 μmol [6]: < 1 ×10⁻⁶ cm/s

Structure (SMILES): O=C(Nc1ccc(N2CCOCC2)cc1)c1cc(-c2nc(N[C@H]3CCCNC3)ncc2C(F)(F)F)c[nH]1 [CDK7_838, N-[4-(morpholin-4-yl)phenyl]-4-(2-{[(3S)-piperidin-3-yl]amino}-5-(trifluoromethyl)pyrimidin-4-yl)-1H-pyrrole-2-carboxamide]
IC50 [1, 8]: 5 to 50 nM
IC50 [7, 10]: > 200 nM
IC50 [2, 9]: 50 to 200 nM
IC50 [3]: 100 to 1000 nM
IC50 [4]: 100 to 1000 nM
CC50 at 72 h [5]: 500 to 2000 nM

Structure (SMILES): Cn1cc(-n2ccc3c(-c4nc(N[C@H]5CCCNC5)ncc4C(F)(F)F)c[nH]c3c2=O)ccc1=O [CDK7_1052, 1-methyl-5-[7-oxo-3-(2-{[(3S)-piperidin-3-yl]amino}-5-(trifluoromethyl)py-rimidin-4-yl)-1H,6H,7H-pyrrolo[2,3-c]pyridin-6-yl]-1,2-dihydropyridin-2-one]
IC50 [1, 11]: < 5 nM
IC50 [1, 8]: < 5 nM
IC50 [7, 12]: 12400 nM
IC50 [7, 10]: > 200 nM
IC50 [2, 13]: 479 nM
IC50 [2, 9]: > 200 nM
IC50 [3]: 100 to 1000 nM
IC50 [4]: 100 to 1000 nM
CC50 at 72 h [5]: > 2000 nM

Continued, in another order:

IC50 [1, 8]: < 5 nM
IC50 [7, 10]: > 200 nM
IC50 [2, 9]: 50 to 200 nM
IC50 [3]: 10 to 100 nM
IC50 [4]: 10 to 100 nM
Papp at 20 h, 10 μmol [6]: < 1 ×10⁻⁶ cm/s
Structure (SMILES): O=C1NCCc2c(-c3nc(N[C@H]4CCCNC4)ncc3C(F)(F)F)c[nH]c21 [CDK7_814, 3-(2-{[(3S)-piperidin-3-yl]amino}-5-(trifluoromethyl)pyrimidin-4-yl)-1H,4H,5H,6H, 7H-pyrrolo[2,3-c]pyridin-7-one]
CC50 at 72 h [5]: 500 to 2000 nM

IC50 [1, 8]: < 5 nM
IC50 [7, 10]: > 200 nM
IC50 [2, 9]: 5 to 50 nM
IC50 [3]: < 10 nM
IC50 [4]: 10 to 100 nM
Papp at 20 h, 10 μmol [6]: < 1 ×10⁻⁶ cm/s
Structure (SMILES): O=c1c2[nH]cc(-c3nc(N[C@H]4CCCNC4)ncc3C(F)(F)F)c2ccn1C1CC1 [CDK7_1105, 6-cyclopropyl-3-(2-{[(3S)-piperidin-3-yl]amino}-5-(trifluoromethyl)py-rimidin-4-yl)-1H,6H,7H-pyrrolo[2,3-c]pyridin-7-one]
CC50 at 72 h [5]: 100 to 500 nM

IC50 [1, 8]: 5 to 50 nM
IC50 [7, 10]: > 200 nM
IC50 [2, 9]: > 200 nM
IC50 [3]: 10 to 100 nM
IC50 [4]: 10 to 100 nM
Papp at 20 h, 10 μmol [6]: 5 to 10 ×10⁻⁶ cm/s
Structure (SMILES): CC1(C)CC[C@H](Nc2ncc(C(F)(F)F)c(-c3c[nH]c4c3CCCN(CC3CCCC3)C4=O)n2)CN1 [CDK7_1155, 7-(cyclopentylmeth-yl)-3-(2-{[(3S)-6,6-dimethylpiperidin-3-yl]amino}-5-(trifluoromethyl)py-rimidin-4-yl)-1H,4H,5H,6H,7H, 8H-pyrrolo[2,3-c]azepin-8-one]
CC50 at 72 h [5]: > 2000 nM

IC50 [1, 11]: 5.6 nM
IC50 [1, 8]: < 5 nM
IC50 [7, 12]: 18600 nM
IC50 [7, 10]: > 200 nM
IC50 [2, 13]: 760 nM
IC50 [2, 9]: > 200 nM
IC50 [3]: 10 to 100 nM
IC50 [4]: 10 to 100 nM
Papp at 20 h, 10 μmol [6]: 1 to 5 ×10⁻⁶ cm/s
Structure (SMILES): CC1(C)CC[C@H](Nc2ncc(C(F)(F)F)c(-c3c[nH]c4c3CCCN(C3CCC3)C4=O)n2)CN1 [CDK7_1226, 7-cyclobutyl-3-(2-{[(3S)-6,6-dimethylpiperidin-3-yl]amino}-5-(trifluoromethyl)py-rimidin-4-yl)-1H,4H,5H,6H,7H, 8H-pyrrolo[2,3-c]azepin-8-one]
CC50 at 72 h [5]: > 2000 nM

IC50 [1, 8]: < 5 nM
IC50 [7, 10]: > 200 nM
IC50 [2, 9]: 50 to 200 nM
IC50 [3]: 10 to 100 nM
IC50 [4]: 10 to 100 nM
Structure (SMILES): Cc1nnc2n1CCCc1c(-c3nc(N[C@H]4CCCNC4)ncc3C(F)(F)F)c[nH]c1-2 [CDK7_1236, 4-{5-methyl-3,4,6,13-tetraazatricyclo[8.3.0.0^2,^6]trideca-1(10),2,4,11-tetraen-11-yl}-N-[(3S)-piperidin-3-yl]-5-(trifluoromethyl)py-rimidin-2-amine]
CC50 at 72 h [5]: > 2000 nM
